This is an account of results in ChEMBL document CHEMBL1135815, “Design, synthesis, and pharmacological evaluation of new farnesyl protein transferase inhibitors” (J Med Chem, 2002).

The target in experiment [1] is Protein farnesyltransferase (Homo sapiens, UniProt P49354+P49356). The experiment is described as follows: Inhibition of Farnesyltransferase catalyzed transfer of the FPP moiety to dansyl-GCVLS. The class given is protein-complex assay.
The target in experiment [2] is Geranylgeranyl transferase type I (Homo sapiens, UniProt P49354+P53609). Kind of experiment: Inhibition of Geranylgeranyl transferase type I (GGPT I) catalyzed transfer of GGPP to dansyl-GCVLL. The class given is protein-complex assay.

What is called IC50 is the concentration that gives 50% inhibition. A higher IC50 goes with weaker potency in that assay. As for `CSCCC(NC(=O)[C@H](Cc1ccccc1)NCC[C@@H](C)CNC[C@H](N)CSC)C(=O)O` (stereo partly specified), the results for the IC50 in experiment [1] and in experiment [2] were 0.034 µM and 5.1 µM, respectively. Regarding `COC(=O)[C@H](CCSC)N(C(=O)c1ccccc1)C1CCNCC1`, the IC50 in experiment [1] is > 100 µM. For the molecule `COC(=O)[C@H](CCSC)N(C(=O)c1ccccc1)C1CCN(C(=O)C(N)CS)CC1` (stereo partly specified), the values for the IC50 in experiment [1] and in experiment [2] were 0.02 µM and > 100 µM, respectively. With `COC(=O)[C@H](CCSC)N(C(=O)c1ccccc1)C1CCN(C(=O)[C@H]2CSCN2)CC1`, in experiment [1], the IC50 was > 100 µM. As to `COC(=O)[C@H](CCSC)N(C(=O)c1ccccc1)C1CCN(C(=O)c2cscn2)CC1`, the results for the IC50 in experiment [1] and in experiment [2] were 52.5 µM and > 100 µM, respectively. In the case of `COC(=O)[C@H](CCSC)N(C(=O)c1ccccc1)C1CCN(Cc2c[nH]cn2)CC1`, the results for the 50% inhibitory concentration (IC50) in experiment [1] and in experiment [2] were 16.2 µM and > 100 µM, respectively. Consider `COC(=O)[C@H](CCSC)N(C(=O)c1ccccc1)C1CCN(C(=O)[C@@H]2CSCN2)CC1`, for which the IC50 in experiment [1] is 2.14 µM; in experiment [2], > 100 µM. As for `COC(=O)[C@H](CCSC)N(C(=O)c1ccccc1)C1CCN(Cc2cscn2)CC1`, the results for the IC50 in experiment [1] and in experiment [2] were 41.7 µM and > 100 µM, respectively. Turning to `CSCC[C@H](NC(=O)c1ccc(NC(=O)[C@@H](N)CS)cc1)C(=O)O`, the half-inhibitory concentration (IC50) in experiment [1] is 0.072 µM; in experiment [2] it was > 100 µM.
